Reference: patent publication US20170209579A1, “NON-INVASIVE RADIOFREQUENCY FIELD TREATMENT FOR CANCER THERAPY” (Baylor College of Medicine, priority 2014, published 2017)

Key:
[1] = system: subcutaneous pancreatic tumors; assay: Tumor size in mice bearing subcutaneous pancreatic tumors, RF + Gemcitabine; assay type: in vivo, mouse; conditions: Gemcitabine 70 mg/Kg intravenously once per week; higher power RF system (0-1200 W); n=5
Protocol: (13A) Mice bearing subcutaneous pancreatic tumors were exposed to either RF, Gemcitabine, or RF+Gemcitabine once per week until the control group tumor size became a burden (n=5 in each group). The RF system used can be seen in (13B) and is a higher power version (0-1200 W) of the portable RF system. RF conditions were similar to that shown in (13B). Gemcitabine was given intravenously at a dosage of 70 mg/Kg. […] (13A) Mice bearing subcutaneous pancreatic tumors were exposed to non-invasive RF, Gemcitabine, or non-invasive RF+Gemcitabine once per week until the control group tumor size became a burden (n=5 in each group). The non-invasive RF system used can be seen in (13B) and is a higher power version (0-1200 W) of the portable RF system. non-invasive RF conditions were similar to that shown in FIG. 13B. Gemcitabine was given intravenously at a dosage of 70 mg/Kg.

Hep3B cells = assay: Clonogenic assay, Hep3B cells; assay type: cell-based, human
Protocol: Clonogenic assay estimates single-cell reproductive viability by measuring the ability of a single cell to form a colony of 50 cells or more. Clonogenic assay in this study was performed as described previously (Franken et al., 2006). Briefly, cancer cells from an exponentially growing, sub-confluent culture were trypsinized and harvested. Approximately 200 cells were counted and plated in each well of a 6-well plate. Approximately 12 hours later, the cells were adherent and treatment conditions were introduced as described herein. After varying treatments, media was replaced and cells were allowed 14 days to form colonies. Subsequently, the media was aspirated and cells were washed with PBS once. Colonies were then fixed with glutaraldehyde (6.0% v/v) and stained with crystal violet (0.5% w/v) for 30 minutes on a leveled shaker at 50 RPM. The fixation and staining solution was then aspirated and the 6-well plates were air-dried after gentle rinsing with tap water. The number of colonies in each well was counted using a colony counting grid. […]
Clonogenic assays were performed on Hep3B cells and SNU449 cells after one of two combinations of hyperthermia and gemcitabine compared with hyperthermia or gemcitabine alone. […] Next, clonogenic viability was evaluated at a gemcitabine concentration of 5 ng/ml and varied the duration of hyperthermia (30 minutes to 4 hours). […]

shMre11 Hep3B cell line = assay: Clonogenic assay, Mre11 knockdown (shMre11) Hep3B cell line; assay type: cell-based, human
Description: For generating an Mre11-knockdown cell line, GPIZ lentiviral shRNA (Open biosystems, Lafayette, Colo.) was used according to the supplied protocol. In order to generate lentivirus, Hep3B cells were transfected in separate experiments with three random clones from a,shRNA library against Mre11 or a control shRNA together with a packaging plasmid (Trans-lentiviral packaging system, Open biosystems, Lafayette, Colo.) using lipofectamine 2000 (Invitrogen, Life technologies, Grand Island, N.Y.). Approximately 72 hours later, cells were observed under a microscope to express GFP, which is a marker of expression of shRNA against Mre11. Relative mre11 knockdown was confirmed by western blot analysis.
Clonogenic assay estimates single-cell reproductive viability by measuring the ability of a single cell to form a colony of 50 cells or more. Clonogenic assay in this study was performed as described previously (Franken et al., 2006). Briefly, cancer cells from an exponentially growing, sub-confluent culture were trypsinized and harvested. Approximately 200 cells were counted and plated in each well of a 6-well plate. Approximately 12 hours later, the cells were adherent and treatment conditions were introduced as described herein. […] The number of colonies in each well was counted using a colony counting grid. […]

[2] = system: γ-H2AX in Hep3B xenografts; assay: γ-H2AX fluorescence immunohistochemistry in Hep3B xenografts; assay type: in vivo, mouse
Protocol: (30A) Sites of DNA damage were evaluated using fluorescence immunohistochemistry for γ-H2AX. Also note the increased nuclear fragmentation in the DAPI channel for combination therapy groups.
Tumor tissues harvested at the end of the experiment were fixed in 10% buffered formalin (pH 7.0) for 24 hours and subsequently stored in 70% ethanol (v/v) before embedding them in paraffin. For immunohistochemistry, 5-micron sections were placed on a glass slide and tissue sections were de-paraffinized and rehydrated. Antigen retrieval was performed in citrate buffer at pH 6.0. The slides were placed in Tris-buffer (pH 8.0) before further processing.
For fluorescence immunohistochemistry, a protocol similar to that used for immunocytochemistry (described above) was used with some modifications described here. Tris-buffer was removed and tumor section was encircled using a pap pen (Electron microscopy sciences, Hatfield, Pa.). For blocking, 5% (w/v) BSA and 3% (v/v) NGS was used instead of 3% BSA and 1% NGS, respectively. Imaging was performed as for immunocytochemistry.
Development of mouse models and details of RF exposure and thermography are discussed in FIGS. 25 and 26. Mice bearing Hep3B orthotopic tumors were randomized to one of five groups: untreated, RF exposure alone, gemcitabine alone, gemcitabine followed 24 hours later by RF exposure, or RF exposure immediately followed by gemcitabine. The treatments were administered twice a week for three weeks for a total of six treatments. The gemcitabine dose administered was […] or 150 mg/kg/week. This is approximately half the dose used in humans (1000 mg/m2/week dose in a 1.7 m human=˜300 mg/kg/week dose in a mouse). Twenty-four hours after the last treatment, mice were killed and tumors were harvested, weighed, and fixed in formalin for later analysis (FIG. 19A). […]

Nc1ccn([C@@H]2O[C@H](CO)[C@@H](O)C2(F)F)c(=O)n1 [gemcitabine, 2′,2′-difluoro 2′-deoxycytidine]
tumor size, Gemcitabine+RF group compared to other groups [1]: clear reduction in tumor size | clonogenic survival, gemcitabine combined with hyperthermia (Hep3B cells; Hep3B, irrespective of dose schedule): dose-dependent enhancement of gemcitabine toxicity | clonogenic viability, varied duration of hyperthermia (Hep3B cells; gemcitabine 5 ng/ml, hyperthermia 30 minutes to 4 hours, cell line not named in the sentence (Hep3B and SNU449 in FIG. 17)): thermal dose-dependent enhancement in toxicity | sensitivity to gemcitabine, shMre11 versus shControl cell line (shMre11 Hep3B cell line; clonogenic survival): more sensitive to gemcitabine | thermal enhancement of gemcitabine toxicity (shMre11 Hep3B cell line; shControl versus shMre11 cells): noted for shControl but not shMre11 cells | Mean γ-H2AX positive pixels/HPF [±SD] ([2]; RF then gemcitabine): 45430±18980 pixels/HPF | Mean γ-H2AX positive pixels/HPF [±SD] ([2]; gemcitabine alone): 27258±8022 pixels/HPF | Mean γ-H2AX positive pixels/HPF [±SD] ([2]; gemcitabine then RF): 46968±10284 pixels/HPF
